Source: ChEMBL document CHEMBL4308841, “Synthesis, in vitro antiproliferative activity, and kinase inhibitory effects of pyrazole-containing diarylureas and diarylamides” (Eur J Med Chem, 2018)

Key:
[1] = molecular target: Mast/stem cell growth factor receptor Kit (Homo sapiens) (UniProt P10721); assay: Inhibition of human c-KIT at 10 uM using poly[Glu:Tyr] (4:1) as substrate after 40 mins in presence of [gamma33P]ATP by scintillation counting method relative to control
[2] = molecular target: DNA-dependent protein kinase catalytic subunit (Homo sapiens) (UniProt P78527); assay: Inhibition of human DNAPK at 10 uM using EPPLSQEAFADLWKK as substrate after 40 mins in presence of [gamma33P]ATP by scintillation counting method relative to control
[3] = molecular target: ALK tyrosine kinase receptor (Homo sapiens) (UniProt Q9UM73); assay: Inhibition of human ALK at 10 uM using poly[Glu:Tyr] (4:1) as substrate after 40 mins in presence of [gamma33P]ATP by scintillation counting method relative to control
[4] = molecular target: Serine/threonine-protein kinase B-raf (Homo sapiens) (UniProt P15056); assay: Inhibition of human BRAF at 10 uM using MEK1 (K97R) as substrate after 40 mins in presence of [gamma33P]ATP by scintillation counting method relative to control
Serine/threonine-protein kinase B-raf (Homo sapiens), sequence (P15056 whole entry): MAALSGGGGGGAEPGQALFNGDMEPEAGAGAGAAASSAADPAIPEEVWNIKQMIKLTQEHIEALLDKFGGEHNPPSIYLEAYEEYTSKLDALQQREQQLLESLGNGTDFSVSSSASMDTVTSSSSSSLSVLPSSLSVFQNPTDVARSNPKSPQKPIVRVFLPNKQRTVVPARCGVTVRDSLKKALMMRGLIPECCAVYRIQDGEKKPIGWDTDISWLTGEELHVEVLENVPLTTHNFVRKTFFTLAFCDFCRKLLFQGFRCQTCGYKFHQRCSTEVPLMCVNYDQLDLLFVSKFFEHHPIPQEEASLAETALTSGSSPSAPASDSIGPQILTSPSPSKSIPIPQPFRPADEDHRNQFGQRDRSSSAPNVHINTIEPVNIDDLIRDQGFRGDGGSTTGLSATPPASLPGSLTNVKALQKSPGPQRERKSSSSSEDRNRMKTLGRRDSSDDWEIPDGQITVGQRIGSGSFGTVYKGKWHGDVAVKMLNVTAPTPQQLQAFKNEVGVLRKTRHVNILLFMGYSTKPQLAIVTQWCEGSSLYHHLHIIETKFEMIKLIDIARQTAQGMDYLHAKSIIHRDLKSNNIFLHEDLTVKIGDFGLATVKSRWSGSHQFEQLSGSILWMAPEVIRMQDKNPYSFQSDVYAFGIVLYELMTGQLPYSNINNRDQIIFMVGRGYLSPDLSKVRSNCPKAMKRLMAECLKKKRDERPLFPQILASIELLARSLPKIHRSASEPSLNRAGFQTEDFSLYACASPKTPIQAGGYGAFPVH

HOP-92 [5] = assay: Growth inhibition of human HOP92 cells assessed as cell growth at 1 uM incubated for 48 hrs by sulforhodamine B assay relative to control; format: functional; conditions: HOP-92, 48 h, read-out: Activity
[6] = molecular target: Fibroblast growth factor receptor 1 (Homo sapiens) (UniProt P11362); assay: Inhibition of human FGFR1 at 10 uM using KKKSPGEYVNIEFG as substrate after 40 mins in presence of [gamma33P]ATP by scintillation counting method relative to control
Fibroblast growth factor receptor 1 (Homo sapiens), sequence (P11362 22-822 limits assumed): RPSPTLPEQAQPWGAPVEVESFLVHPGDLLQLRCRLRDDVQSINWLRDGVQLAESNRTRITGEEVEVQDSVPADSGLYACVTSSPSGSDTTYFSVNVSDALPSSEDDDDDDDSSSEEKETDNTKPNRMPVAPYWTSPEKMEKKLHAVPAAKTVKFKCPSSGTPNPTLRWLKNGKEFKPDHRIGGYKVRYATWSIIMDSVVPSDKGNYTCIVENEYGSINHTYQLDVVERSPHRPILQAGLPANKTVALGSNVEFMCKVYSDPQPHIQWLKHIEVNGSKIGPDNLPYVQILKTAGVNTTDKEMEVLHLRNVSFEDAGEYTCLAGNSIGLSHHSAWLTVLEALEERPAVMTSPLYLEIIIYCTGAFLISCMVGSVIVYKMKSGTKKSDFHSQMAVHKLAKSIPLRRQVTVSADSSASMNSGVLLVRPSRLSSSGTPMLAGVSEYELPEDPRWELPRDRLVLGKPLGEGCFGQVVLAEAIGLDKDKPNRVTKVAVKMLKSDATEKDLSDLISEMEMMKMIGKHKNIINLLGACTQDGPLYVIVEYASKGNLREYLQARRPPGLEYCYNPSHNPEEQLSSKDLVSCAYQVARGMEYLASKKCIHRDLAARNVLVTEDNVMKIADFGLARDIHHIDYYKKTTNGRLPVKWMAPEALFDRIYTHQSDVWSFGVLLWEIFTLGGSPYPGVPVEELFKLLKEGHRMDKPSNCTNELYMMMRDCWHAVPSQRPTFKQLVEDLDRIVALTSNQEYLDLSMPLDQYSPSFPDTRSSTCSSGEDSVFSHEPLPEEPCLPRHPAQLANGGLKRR

[7] = molecular target: Receptor-type tyrosine-protein kinase FLT3 (Homo sapiens) (UniProt P36888); assay: Inhibition of human FLT3 at 10 uM using EAIYAAPFAKKK as substrate after 40 mins in presence of [gamma33P]ATP by scintillation counting method relative to control
Receptor-type tyrosine-protein kinase FLT3 (Homo sapiens), sequence (P36888 whole entry): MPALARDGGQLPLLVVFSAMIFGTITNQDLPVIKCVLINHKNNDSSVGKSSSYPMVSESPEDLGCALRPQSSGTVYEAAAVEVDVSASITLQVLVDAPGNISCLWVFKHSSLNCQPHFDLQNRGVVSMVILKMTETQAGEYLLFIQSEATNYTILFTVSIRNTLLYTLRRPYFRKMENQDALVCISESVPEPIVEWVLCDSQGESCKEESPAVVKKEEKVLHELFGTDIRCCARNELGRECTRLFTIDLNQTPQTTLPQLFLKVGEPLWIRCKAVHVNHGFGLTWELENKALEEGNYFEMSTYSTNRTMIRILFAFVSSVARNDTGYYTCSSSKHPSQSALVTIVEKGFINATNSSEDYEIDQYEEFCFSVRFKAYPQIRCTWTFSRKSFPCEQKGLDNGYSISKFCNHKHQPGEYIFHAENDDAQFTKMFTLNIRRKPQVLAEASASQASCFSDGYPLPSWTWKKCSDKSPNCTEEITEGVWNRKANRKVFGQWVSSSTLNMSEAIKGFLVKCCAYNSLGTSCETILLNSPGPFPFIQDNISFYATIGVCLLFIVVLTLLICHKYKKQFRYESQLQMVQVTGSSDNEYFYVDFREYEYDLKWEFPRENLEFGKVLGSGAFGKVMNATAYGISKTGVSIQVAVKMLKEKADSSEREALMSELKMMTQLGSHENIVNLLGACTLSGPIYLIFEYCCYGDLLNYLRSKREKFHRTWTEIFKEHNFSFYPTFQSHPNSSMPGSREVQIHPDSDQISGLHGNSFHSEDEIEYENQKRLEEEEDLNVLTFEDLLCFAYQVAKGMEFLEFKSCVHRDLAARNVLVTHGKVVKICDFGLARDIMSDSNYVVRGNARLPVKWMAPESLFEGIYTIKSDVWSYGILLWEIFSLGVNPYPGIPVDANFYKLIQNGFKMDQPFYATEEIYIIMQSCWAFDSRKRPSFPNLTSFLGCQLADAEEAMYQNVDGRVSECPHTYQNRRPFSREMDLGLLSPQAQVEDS

[8] = molecular target: Tyrosine-protein kinase JAK1 (Homo sapiens) (UniProt P23458); assay: Inhibition of human JAK1 at 10 uM using poly[Glu:Tyr] (4:1) as substrate after 40 mins in presence of [gamma33P]ATP by scintillation counting method relative to control
Tyrosine-protein kinase JAK1 (Homo sapiens), sequence (P23458 whole entry): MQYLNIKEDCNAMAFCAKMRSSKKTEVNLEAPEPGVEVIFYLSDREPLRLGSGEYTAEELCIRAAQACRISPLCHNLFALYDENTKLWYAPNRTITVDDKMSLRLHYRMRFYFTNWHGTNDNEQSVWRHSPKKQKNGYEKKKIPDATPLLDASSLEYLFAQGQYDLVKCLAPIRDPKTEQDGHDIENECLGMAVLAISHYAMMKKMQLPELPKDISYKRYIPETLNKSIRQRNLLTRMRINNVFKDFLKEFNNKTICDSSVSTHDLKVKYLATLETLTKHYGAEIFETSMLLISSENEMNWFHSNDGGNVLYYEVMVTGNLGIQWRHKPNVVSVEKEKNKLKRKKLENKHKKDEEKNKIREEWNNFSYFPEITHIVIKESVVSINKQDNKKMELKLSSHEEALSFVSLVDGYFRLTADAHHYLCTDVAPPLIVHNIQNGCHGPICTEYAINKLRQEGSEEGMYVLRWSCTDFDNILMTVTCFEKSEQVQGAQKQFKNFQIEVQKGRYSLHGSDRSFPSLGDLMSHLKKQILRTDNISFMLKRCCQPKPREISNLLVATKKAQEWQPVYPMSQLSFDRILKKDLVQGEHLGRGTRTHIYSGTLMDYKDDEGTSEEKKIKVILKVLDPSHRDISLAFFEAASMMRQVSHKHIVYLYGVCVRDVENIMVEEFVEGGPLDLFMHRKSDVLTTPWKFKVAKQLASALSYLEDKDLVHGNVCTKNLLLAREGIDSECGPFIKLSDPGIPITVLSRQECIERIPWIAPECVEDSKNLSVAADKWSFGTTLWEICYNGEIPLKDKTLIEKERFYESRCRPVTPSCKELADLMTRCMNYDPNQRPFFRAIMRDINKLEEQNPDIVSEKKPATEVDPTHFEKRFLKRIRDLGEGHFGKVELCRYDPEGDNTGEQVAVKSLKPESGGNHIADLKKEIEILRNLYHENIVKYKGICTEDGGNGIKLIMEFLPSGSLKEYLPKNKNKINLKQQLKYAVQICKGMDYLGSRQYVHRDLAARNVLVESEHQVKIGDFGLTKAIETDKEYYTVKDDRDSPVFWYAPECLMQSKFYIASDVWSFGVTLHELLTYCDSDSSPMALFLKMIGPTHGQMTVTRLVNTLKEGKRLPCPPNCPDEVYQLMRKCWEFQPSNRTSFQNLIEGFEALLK

[9] = molecular target: Vascular endothelial growth factor receptor 2 (Homo sapiens) (UniProt P35968); assay: Inhibition of human VEGFR2 at 10 uM using poly[Glu:Tyr] (4:1) as substrate after 40 mins in presence of [gamma33P]ATP by scintillation counting method relative to control
[10] = molecular target: Mitogen-activated protein kinase 14 (Homo sapiens) (UniProt Q16539); assay: Inhibition of human p38alpha at 10 uM using myelin basic protein as substrate after 40 mins in presence of [gamma33P]ATP by scintillation counting method relative to control
Mitogen-activated protein kinase 14 (Homo sapiens), sequence (Q16539 whole entry): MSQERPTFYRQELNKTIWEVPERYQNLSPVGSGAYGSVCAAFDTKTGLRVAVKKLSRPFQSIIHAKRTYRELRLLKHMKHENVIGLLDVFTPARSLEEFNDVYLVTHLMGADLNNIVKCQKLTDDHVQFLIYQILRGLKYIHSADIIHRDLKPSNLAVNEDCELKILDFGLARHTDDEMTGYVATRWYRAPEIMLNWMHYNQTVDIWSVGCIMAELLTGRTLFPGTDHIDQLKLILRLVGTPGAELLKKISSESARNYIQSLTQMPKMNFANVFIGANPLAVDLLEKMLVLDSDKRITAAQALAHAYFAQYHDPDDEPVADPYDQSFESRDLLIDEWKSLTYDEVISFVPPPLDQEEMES

HOP-92 [11] = assay: Growth inhibition of human HOP92 cells assessed as cell growth at 0.1 uM incubated for 48 hrs by sulforhodamine B assay relative to control; format: functional; conditions: HOP-92, 48 h, read-out: Activity
[12] = molecular target: RAF proto-oncogene serine/threonine-protein kinase (Homo sapiens) (UniProt P04049); assay: Inhibition of human c-RAF at 10 uM using MEK1 (K97R) as substrate after 40 mins in presence of [gamma33P]ATP by scintillation counting method relative to control
[13] = tested on: Serine/threonine-protein kinase B-raf (Homo sapiens), P15056 [V600E]; assay: Inhibition of human BRAF V600E mutant at 10 uM using MEK1 (K97R) as substrate after 40 mins in presence of [gamma33P]ATP by scintillation counting method relative to control
Serine/threonine-protein kinase B-raf (Homo sapiens), P15056 [V600E], sequence (P15056 whole entry V600E): as the sequence (P15056 whole entry) above, with V600E counted along it

TK-10 [14] = assay: Growth inhibition of human TK10 cells assessed as cell growth at 0.1 uM incubated for 48 hrs by sulforhodamine B assay relative to control; format: functional; conditions: TK-10, 48 h, read-out: Activity
TK-10 [15] = assay: Growth inhibition of human TK10 cells assessed as cell growth at 0.01 uM incubated for 48 hrs by sulforhodamine B assay relative to control; format: functional; conditions: TK-10, 48 h, read-out: Activity
[16] = molecular target: Dual specificity mitogen-activated protein kinase kinase 1 (Homo sapiens) (UniProt Q02750); assay: Inhibition of human MEK1 at 10 uM using ERK2 (K52R) as substrate after 40 mins in presence of [gamma33P]ATP by scintillation counting method relative to control
[17] = molecular target: Mitogen-activated protein kinase 1 (Homo sapiens) (UniProt P28482); assay: Inhibition of human ERK2 at 10 uM using myelin basic protein as substrate after 40 mins in presence of [gamma33P]ATP by scintillation counting method relative to control
RPMI-8226 = assay: Induction of apoptosis in human RPMI8226 cells assessed as increase in caspase 3/7 level; format: functional, cell-based
TK-10 [18] = assay: Growth inhibition of human TK10 cells assessed as cell growth at 1 uM incubated for 48 hrs by sulforhodamine B assay relative to control; format: functional; conditions: TK-10, 48 h, read-out: Activity
[19] = molecular target: Mitogen-activated protein kinase 8 (Homo sapiens) (UniProt P45983); assay: Inhibition of human JNK1 at 10 uM using ATF2 as substrate after 40 mins in presence of [gamma33P]ATP by scintillation counting method relative to control
[20] = molecular target: Serine/threonine-protein kinase B-raf (Homo sapiens, UniProt P15056, V600E); assay: Inhibition of human BRAF V600E mutant using MEK1 (K97R) as substrate after 40 mins in presence of [gamma33P]ATP by scintillation counting method
[21] = molecular target: Macrophage colony-stimulating factor 1 receptor (Homo sapiens) (UniProt P07333); assay: Inhibition of human FMS at 10 uM using poly[Glu:Tyr] (4:1) as substrate after 40 mins in presence of [gamma33P]ATP by scintillation counting method relative to control
Macrophage colony-stimulating factor 1 receptor (Homo sapiens), sequence (P07333 whole entry): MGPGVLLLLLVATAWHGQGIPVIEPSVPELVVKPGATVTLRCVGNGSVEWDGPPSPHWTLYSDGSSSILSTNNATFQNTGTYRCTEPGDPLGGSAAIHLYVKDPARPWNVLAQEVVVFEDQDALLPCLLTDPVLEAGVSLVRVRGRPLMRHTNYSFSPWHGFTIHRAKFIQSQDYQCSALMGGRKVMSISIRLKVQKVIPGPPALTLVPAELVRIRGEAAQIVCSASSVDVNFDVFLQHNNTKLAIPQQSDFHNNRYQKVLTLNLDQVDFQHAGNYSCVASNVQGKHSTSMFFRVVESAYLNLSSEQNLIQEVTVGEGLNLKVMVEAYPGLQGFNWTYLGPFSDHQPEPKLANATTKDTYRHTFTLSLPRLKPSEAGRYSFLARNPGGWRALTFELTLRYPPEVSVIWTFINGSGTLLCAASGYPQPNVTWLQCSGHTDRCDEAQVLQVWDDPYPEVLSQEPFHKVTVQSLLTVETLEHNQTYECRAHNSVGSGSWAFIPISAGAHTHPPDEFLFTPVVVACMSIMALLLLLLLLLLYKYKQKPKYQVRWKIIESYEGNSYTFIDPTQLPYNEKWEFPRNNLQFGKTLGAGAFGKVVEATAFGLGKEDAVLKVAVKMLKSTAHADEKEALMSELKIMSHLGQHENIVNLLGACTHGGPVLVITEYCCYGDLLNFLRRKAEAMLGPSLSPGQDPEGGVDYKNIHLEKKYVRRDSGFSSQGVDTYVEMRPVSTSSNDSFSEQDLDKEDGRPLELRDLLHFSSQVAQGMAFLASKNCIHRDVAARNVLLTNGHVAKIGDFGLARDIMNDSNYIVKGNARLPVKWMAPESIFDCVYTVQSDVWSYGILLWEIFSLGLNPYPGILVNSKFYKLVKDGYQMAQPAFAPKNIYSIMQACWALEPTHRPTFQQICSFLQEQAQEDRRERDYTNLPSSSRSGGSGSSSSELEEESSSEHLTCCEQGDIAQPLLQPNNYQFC

Q: Which results are given for `COc1cc(Cl)cc(-c2nn(-c3cccc(NC(=O)Nc4cc(C(F)(F)F)cc(C(F)(F)F)c4)c3)cc2-c2ccncc2)c1`?
A: inhibition [1]: 1.25%; inhibition [2]: 3.5%; inhibition [3]: -3.77%; inhibition [4]: 39.1%; growth at 1 µM (HOP-92 [5]): -10%; inhibition [6]: -1.71%; inhibition [7]: -2.82%; inhibition [8]: 10.7%; inhibition [9]: -5.83%; inhibition [10]: -5.41%; growth at 0.1 µM (HOP-92 [11]): 83%; inhibition [12]: 57.8%; inhibition [13]: 94.7%; growth at 0.1 µM (TK-10 [14]): 90%; growth at 0.01 µM (TK-10 [15]): 96%; inhibition [16]: -7.99%; inhibition [17]: -8.66%; EC50 (RPMI-8226): 1.52 µM; growth at 1 µM (TK-10 [18]): 42%; inhibition [19]: 2.27%; IC50 [20]: 0.39 µM; inhibition [21]: -0.94%
